Patent publication US20230142353A1, “IMPLANT DEVICES AND METHODS FOR TREATMENT OF CERVICAL CANCER” (Washington University, priority 2020, published 2023)

What was measured:
[1] = Pt accumulation in cervical cancer patient biopsies (ICP-MS); format: in vivo, Human; details: for drug accumulation in patient tissues lower than in cell lines at in vitro efficacious concentration: patient biopsies vs cell lines treated at 6 μM
Experimental: Patients with biopsy-proven cervical carcinoma were enrolled into an institutional review board-approved prospective study in which cervical tumor biopsies were obtained 3 weeks into chemoradiation treatment. All patients were treated with definitive chemoradiation treatment, which consisted of external beam radiation therapy to the pelvis (50.4 Gy) 4 days per week using intensity-modulated radiation therapy with a split-pelvis technique with 6 weekly brachytherapy boosts to a dose of 6.5 Gy per fraction to point A, starting at week 1. Concurrent with radiation therapy, all patients received the conventional treatment of cisplatin (40 mg/m^2, intravenous [IV]) weekly. Cervical tumor samples were collected immediately before delivery of the third brachytherapy treatment, approximately half-way through the treatment course. Samples were collected, immediately snap-frozen, and processed for storage. The average time between cisplatin administration and biopsy was 4.5 days (range, 1-17 days).
To determine tissue Cis-Pt accumulation within the patient biopsy samples, tissue digestion and inductively coupled plasma mass spectrometry (ICP-MS) were performed to quantify the levels of Pt in the samples. Briefly, biopsy samples were thawed and precisely weighed (±0.1 mg) before being digested in concentrated nitric acid (HNO3) overnight. Samples were then diluted with deionized water to a final 5% HNO3 (v/v) and digested using a microwave digestion system (MARS 6 Microwave Digestion System, CEM, Matthews, N.C.) at 200° C. for 45 minutes. Samples were analyzed with ICP-MS (ELAN DRC II ICP-MS, Perkin Elmer, Inc, Waltham, Mass.) for Pt content, against a calibration curve of Pt standards of 0, 0.1, 1, 10, 50, 100, and 250 parts per billion (ppb) in 5% HNO3, which were prepared from 10 parts per million Pt standard solution (Inorganic Ventures, Christiansburg, Va.). Terbium was used as an internal standard throughout the ICP-MS analysis. The average Pt content in clinical biopsies (Av-Pt-Clin) was calculated.
[…]

[2] = tested on: C33A subcutaneous cervical tumors; experiment: In vivo efficacy, tumor progression with or without radiation; set-up: species or system athymic nude mice
Experimental: C33A cells (2×10^6/mouse) were suspended in 50% Matrigel and 50% DMEM media. The suspended C33A cells were injected subcutaneously around the lower back of 42 female athymic nude mice that were 6 to 8 weeks old. Tumor progression was confirmed after 3 weeks, and mice were then randomized into 6 groups (n=7) and treated with: (1) tail vein injection of PBS (Vehicle-IV), (2) Cis-Pt-IV at 1 mg/kg, (3) Cis-Pt-Implant at 1 mg Cis-Pt/kg, (4) Vehicle-IV+radiation (5 days×2 Gy/day), (5) Cis-Pt-IV+radiation, and (6) Cis-Pt-Implant+radiation.
In a separate experiment, the effect of a fractionated radiation dose was compared to a single high dose of radiation administered concurrently with Cis-Pt-Implants. C33A cells (2×10^6/mouse) were suspended in 50% Matrigel and 50% DMEM media. The suspended C33A cells were injected subcutaneously around the lower back of 14 female athymic nude mice that were 6 to 8 weeks old (Charles Rivers Laboratories). Tumor progression was confirmed after 3 weeks, mice were then intratumorally implanted with Cis-Pt-loaded implant (1 mg/kg) and randomized into 2 groups (n=7), treated with: (1) fractionated radiation (5 days×2 Gy/d), mimicking external beam radiation; or (2) a single high dose of 8 Gy, mimicking brachytherapy.
For the in vivo experiments above, tumor progression was monitored by measurement of tumor sizes in all treatment groups every 2 days. […]

[3] = tested on: C33A cervical cancer cells; experiment: In vitro clonogenic survival; format: cell-based, Human; details: for clonogenic growth: with or without radiation
Experimental: C33A cervical cancer cells (0.5×10^6 cells/condition) were plated in T25 flasks 24 hours before treatment. Cells were treated with Cis-Pt at 0, 1, 3, or 6 μM for 4 hours, and subjected to irradiation at 0 or 6 Gy (4 Gy/min). Cells were then lifted with trypsin, counted, and were plated in triplicates for each condition at 500 cells per well in 24 well plates. After 12 days of culture, cells were fixed and stained with 0.5% Crystal Violet (Sigma Aldrich) in methanol, washed, and dried.

[4] = tested on: Cervical cancer cell lines; experiment: Pt content in cell lines in vitro (ICP-MS); format: cell-based, Human; details: treated at 6 μM (Av-IC50) for 48 hours, average
Experimental: Cervical cancer cell lines (10×10^6 cells) were treated Cis-Pt at Av-IC50 for 48 hours. Cells were then lifted with trypsin (0.05% Trypsin-EDTA, Gibco Life Technologies), spun down, and washed 3 times, to eliminate free Cis-Pt. Cell pellets were then weighed, digested, and analyzed by ICP-MS, and the average Pt content in cell lines in vitro (Av-Pt-in vitro) was calculated.

[5] = 24 hours after IV injection of 100 mg/m^2; cited from earlier work
[6] = In vivo biodistribution of Pt in subcutaneous C33A tumor model (ICP-MS); set-up: species or system athymic nude mice; details: systemic (IV injection) delivery, 1 mg/kg, 24 hours
[7] = tested on: Cervical cancer cell lines; experiment: In vitro radio-sensitization with Cis-Pt, MTT assay and combination index; format: cell-based, Human; details: for sensitization to radiation therapy: 6 Gy
Experimental: Clinically relevant Pt concentration (Clin-conc) was estimated as a fraction of Av-IC50 based on the relative difference between tissue Pt contents in clinical biopsies and in vitro: Av-IC50×(Av-Pt-Clin/Av-Pt-in vitro). The radiosensitizing effect of Cis-Pt on cervical cancer cell lines was assessed using an MTT assay. Briefly, cells were treated with or without Cis-Pt at Av-IC50 (6 μM) or Clin-conc (1 μM) for a duration of 24 or 48 hours. Additionally, cells were also treated with or without a single-fraction dose of 6 Gy (4 Gy/min) using an RS2000 160 kV x-ray Irradiator equipped with a 0.3-mm copper filter (Rad Source Technologies Inc, Buford, Ga.), at the beginning of the treatment. At the end of each treatment, an MTT assay was performed to determine the survival of the cells.
The combination effect between Cis-Pt treatment and radiation was evaluated by calculating the combination index (CI) using the formula: CI=(Ea×Eb)/Eab, where Ea and Eb are the individual effects (fractional killing, 0≤Ei≤1) and Eab is the combination effect of drugs a and b. This index represents the ratio between the predicted combination effect and the actual combination effect. When the CI=1, the effect is additive. When the CI<1, the effect is supra-additive; when CI>1, the effect is sub-additive.

[8] = tested on: cervical cancer cell lines C33A, Me-180, HT3, Caski, and SiHa; experiment: In vitro cytotoxicity of Cis-Pt, MTT assay; format: cell-based, Human; details: average dose-response curve of 5 cell lines, 48 hours, read-out: average IC50 (Av-IC50)
Experimental: Human cervical cancer cell lines C33A, Me-180, HT3, Caski, and SiHa were purchased from American Type Culture Collection (ATCC; Manassas, Va.). Cell lines were cultured in Dulbecco's Modified Eagle Medium (DMEM; Gibco Life Technologies, Grand Island, N.Y.) supplemented with 10% fetal bovine serum (FBS; Gibco Life Technologies), 2 mmol/L of L-glutamine, 100 ng/mL penicillin, and 100 ng/mL streptomycin (Corning CellGro, Mediatech, Manassas, Va.). All cells were cultured at 37° C., 5% CO2 in a NuAire water jacket incubator (Plymouth, Minn.).
The in vitro cytotoxicity on cervical cancer cell lines was assessed using an MTT assay (Sigma Aldrich). Briefly, cells were seeded at 5×10^3 cells/well in 96-well plates overnight at 37° C. to promote their adhesion to the plates. […] After 48 hours of treatment, MTT solution was added to the cells for 3 hours, and then the stop solution was added to dissolve the formazan crystals overnight. The wells were read with SpectraMax i3 multimode microplate spectrophotometer (Molecular Devices, San Jose, Calif.) at 570 nm. Dose-response curves were graphed and the average dose-response curve was calculated.

N.N.[Cl][Pt][Cl] [Cis-Pt, cis-Diammineplatinum(II) dichloride]
Pt levels detected in patient tissues ([1]; 40 mg/m^2 IV weekly, biopsies about 3 weeks into chemoradiation, average of 20): about 430 ng Pt/g tissue
influence of time of biopsy since last injection on Pt level within the tumor ([1]; 1-17 days after injection): not a major factor
drug accumulation in patient tissues lower than in cell lines at in vitro efficacious concentration [1]: about 6 fold
drug accumulation in patient tissues lower than in cell lines at in vitro efficacious concentration ([1]; listed as Cisplatin): 6 fold
treatment outcome with fractionated radiation ([2]; systemic delivery 1 mg/kg + 2 Gy×5 days): improved treatment outcome compared with radiation alone
tumor progression ([2]; systemic delivery (IV) 1 mg/kg, without radiation): did not alter tumor progression
clonogenic cell survival ([3]; 1 μM, alone or in combination with radiation (6 Gy)): unable to limit clonogenic cell survival
clonogenic growth ([3]; 3 μM): significantly restricted clonogenic growth
clonogenic growth ([3]; 6 μM): significantly restricted clonogenic growth
Pt levels in cell lines [4]: about 2560 ng Pt/g tissue
intratumoral platinum (Pt) concentration [5]: 0.9 ng/mg
Pt concentration in the tumor [6]: 53 ng Pt/g tissue
sensitization to radiation therapy ([7]; 1 μM Cis-Pt): limited radio-sensitization
combination effect of Cis-Pt and radiation by CI ([7]; 1 μM treatment): sub-additive
sensitization to radiation therapy ([7]; 6 μM Cis-Pt): significant sensitization to radiation therapy in all cell lines
combination effect of Cis-Pt and radiation by CI ([7]; 6 μM treatment): supra-additive
IC50 [8]: 6 µM
